# Measurements reported in ChEMBL document CHEMBL1201862, “PubChem BioAssay data set” (2004).
#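 Exposure lasted 48 hours, with cells grown in 96-well plates and compounds tested at five concentrations. Abbreviation: GI50, concentration required for 50% inhibition of growth.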 Activity calls are given as the source filed them. No stated cut-off is given here; in the data, active = GI50 up to about 1.1 µM and inactive = higher.
# Key:
# Assay in all cases: DTP human tumour cell line panel, 48 h
# ACHN = test system: ACHN
# CAKI-1 = test system: CAKI-1
# HL-60 = test system: HL-60
# HOP-92 = test system: HOP-92
# NCI-H226 = test system: NCI-H226
# NCI-H460 = test system: NCI-H460
# NCI-H522 = test system: NCI-H522
# OVCAR-5 = test system: OVCAR-5
# RPMI-8226 = test system: RPMI-8226
# SF-539 = test system: SF-539
# SK-OV-3 = test system: SK-OV-3
# SN12C = test system: SN12C
# SNB-19 = test system: SNB-19
# UACC-257 = test system: UACC-257
# UACC-62 = test system: UACC-62
# SNB-75 = test system: SNB-75
SMILES,GI50 (ACHN),GI50 (CAKI-1),GI50 (HL-60),GI50 (HOP-92),GI50 (NCI-H226),GI50 (NCI-H460),GI50 (NCI-H522),GI50 (OVCAR-5),GI50 (RPMI-8226),GI50 (SF-539),GI50 (SK-OV-3),GI50 (SN12C),GI50 (SNB-19),GI50 (UACC-257),GI50 (UACC-62),GI50 (SNB-75)
N#C/C(=C\c1ccc(CP(=O)(O)O)cc1)C(N)=O,> 100 µM (inactive),> 100 µM (inactive),> 100 µM (inactive),> 100 µM (inactive),> 100 µM (inactive),> 100 µM (inactive),> 100 µM (inactive),> 100 µM (inactive),> 100 µM (inactive),> 100 µM (inactive),> 100 µM (inactive),> 100 µM (inactive),> 100 µM (inactive),> 100 µM (inactive),> 100 µM (inactive),–
COc1cc(C)c(O)c(C(=O)O)c1,> 100 µM (inactive),> 100 µM (inactive),–,–,> 100 µM (inactive),> 100 µM (inactive),> 100 µM (inactive),> 100 µM (inactive),–,–,> 100 µM (inactive),> 100 µM (inactive),> 100 µM (inactive),> 100 µM (inactive),> 100 µM (inactive),> 100 µM (inactive)
Cc1nc(N)sc1C(=O)/C=C\c1ccc2c(c1)OCO2,> 100 µM (inactive),> 100 µM (inactive),> 100 µM (inactive),> 100 µM (inactive),> 100 µM (inactive),> 100 µM (inactive),> 100 µM (inactive),> 100 µM (inactive),> 100 µM (inactive),> 100 µM (inactive),> 100 µM (inactive),> 100 µM (inactive),> 100 µM (inactive),> 100 µM (inactive),> 100 µM (inactive),> 100 µM (inactive)
O=c1ccn([C@@H]2C[C@H](CO)C[S+]([O-])C2)c(=O)[nH]1 (stereo partly drawn),> 100 µM (inactive),> 100 µM (inactive),> 100 µM (inactive),> 100 µM (inactive),> 100 µM (inactive),> 100 µM (inactive),> 100 µM (inactive),–,> 100 µM (inactive),> 100 µM (inactive),> 100 µM (inactive),> 100 µM (inactive),> 100 µM (inactive),> 100 µM (inactive),> 100 µM (inactive),> 100 µM (inactive)
C=CC1(NS(=O)(=O)c2ccc(C)cc2)CCC(C(C)(C)C)CC1 (stereo not drawn),65.3 µM (inactive),> 100 µM (inactive),70.1 µM (inactive),–,> 100 µM (inactive),> 100 µM (inactive),32.7 µM (inactive),–,17.5 µM (inactive),64 µM (inactive),34.4 µM (inactive),> 100 µM (inactive),36.6 µM (inactive),> 100 µM (inactive),28.5 µM (inactive),17.8 µM (inactive)
NC(=O)CC(N/C=C1/N=C(c2ccccc2)OC1=O)C(=O)O (stereo not drawn),> 100 µM (inactive),> 100 µM (inactive),> 100 µM (inactive),> 100 µM (inactive),> 100 µM (inactive),> 100 µM (inactive),> 100 µM (inactive),> 100 µM (inactive),> 100 µM (inactive),> 100 µM (inactive),> 100 µM (inactive),–,> 100 µM (inactive),> 100 µM (inactive),> 100 µM (inactive),> 100 µM (inactive)
COc1cc([C@@H]2c3cc4c(cc3C(N)C3COC(=O)[C@@H]32)OCO4)cc(OC)c1O (stereo partly drawn),0.146 µM (active),0.163 µM (active),0.19 µM (active),–,0.292 µM (active),0.304 µM (active),–,–,0.277 µM (active),0.189 µM (active),–,0.445 µM (active),0.17 µM (active),0.232 µM (active),0.037 µM (active),0.133 µM (active)
Cc1cc(C)c(C2[C@H]3C(=O)N(c4ccc(Cc5ccc(N6C(=O)[C@@H]7ON(c8ccccc8)C(c8c(C)cc(C)cc8C)[C@@H]7C6=O)cc5)cc4)C(=O)[C@H]3ON2c2ccccc2)c(C)c1 (stereo partly drawn),> 100 µM (inactive),57.9 µM (inactive),46.3 µM (inactive),–,> 100 µM (inactive),> 100 µM (inactive),> 100 µM (inactive),> 100 µM (inactive),> 100 µM (inactive),> 100 µM (inactive),> 100 µM (inactive),> 100 µM (inactive),> 100 µM (inactive),> 100 µM (inactive),> 100 µM (inactive),> 100 µM (inactive)
CN1N=C2NCCNC3=NN(C)/C(=N/CC/N=C/1S2)S3,> 100 µM (inactive),–,> 100 µM (inactive),> 100 µM (inactive),> 100 µM (inactive),> 100 µM (inactive),> 100 µM (inactive),> 100 µM (inactive),> 100 µM (inactive),> 100 µM (inactive),–,> 100 µM (inactive),> 100 µM (inactive),> 100 µM (inactive),> 100 µM (inactive),> 100 µM (inactive)
